Laboratory results reported in paper PMC2953536 (Angewandte Chemie (International ed. in English), 2010).

Key:
[1] = molecular target: MMP-12 (Homo sapiens, UniProt P39900); assay: Fluorescence-based MMP inhibition assay, MMP-12; assay type: biochemical; settings: MMP-12, fluorescence based assay, average of two experiments
[2] = molecular target: MMP-9 (Homo sapiens, UniProt P14780); assay: Fluorescence-based MMP inhibition assay, MMP-9; assay type: biochemical; settings: inhibitor, MMP-9, fluorescence based assay, average of two experiments
Sequence of MMP-9 (P14780 94-707, species assumed): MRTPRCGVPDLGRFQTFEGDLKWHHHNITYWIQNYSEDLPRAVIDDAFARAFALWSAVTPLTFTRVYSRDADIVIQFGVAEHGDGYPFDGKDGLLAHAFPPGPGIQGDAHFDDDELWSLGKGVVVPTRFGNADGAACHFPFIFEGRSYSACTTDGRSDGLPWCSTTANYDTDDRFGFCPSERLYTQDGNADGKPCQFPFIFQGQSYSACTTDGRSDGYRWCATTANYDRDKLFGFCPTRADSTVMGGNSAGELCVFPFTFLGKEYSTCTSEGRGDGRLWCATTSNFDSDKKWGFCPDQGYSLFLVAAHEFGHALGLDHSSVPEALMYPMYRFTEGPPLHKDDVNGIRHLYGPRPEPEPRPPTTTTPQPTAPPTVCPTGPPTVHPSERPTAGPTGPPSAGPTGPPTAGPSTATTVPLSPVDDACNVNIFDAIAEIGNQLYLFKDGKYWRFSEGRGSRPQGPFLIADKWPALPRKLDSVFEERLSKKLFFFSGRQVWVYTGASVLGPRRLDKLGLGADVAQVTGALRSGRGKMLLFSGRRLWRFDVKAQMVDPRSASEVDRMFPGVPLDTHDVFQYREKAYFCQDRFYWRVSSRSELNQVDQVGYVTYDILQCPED

Sequence of MMP-12 (P39900 106-470, species assumed): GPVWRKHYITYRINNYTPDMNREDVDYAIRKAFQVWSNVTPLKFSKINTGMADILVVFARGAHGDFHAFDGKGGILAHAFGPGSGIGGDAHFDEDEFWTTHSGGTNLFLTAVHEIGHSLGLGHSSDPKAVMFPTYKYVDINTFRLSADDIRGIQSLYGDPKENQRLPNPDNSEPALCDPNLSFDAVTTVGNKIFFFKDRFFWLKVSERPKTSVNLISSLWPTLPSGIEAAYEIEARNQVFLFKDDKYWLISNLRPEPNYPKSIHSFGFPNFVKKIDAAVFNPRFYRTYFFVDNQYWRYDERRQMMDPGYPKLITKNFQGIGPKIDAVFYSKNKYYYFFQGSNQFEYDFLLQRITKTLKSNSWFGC

IC50 [1]: 0.053 µM
IC50 [2]: 6.1 µM
SMILES: O=C(NCc1ccc(-c2ccccc2)cc1)c1cccc(=O)n1O [1,2-HOPO-2]
